Data: US20220073536A1 (Rigel Pharmaceuticals, Inc., priority 2003, published 2022)
Structures can show the parent of a compound that is named as a salt.

Tests used:
[1] = system: cultured human mast cells (CHMC); experiment: CHMC low cell density IgE activation: tryptase assay; format: cell-based; details: low cell density CHMC, IgE activation, tryptase readout
How it was run: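 Anti-IgE-driven degranulation of cultured human mast cells at low density, 1000–1500 cells/well, was induced over 30 min at 37 °C. It was scored by supernatant tryptase activity on a fluorogenic substrate.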

[2] = system: cultured human mast cells (CHMC); experiment: CHMC low cell density ionomycin activation: tryptase assay; format: cell-based; details: low cell density CHMC, tryptase readout, 3 pt, read-out: LD Tryptase, CHMC, Iono, 3 pt
[3] = Homo sapiens, Mast cell, 3 pt, read-out: LD Tryptase, CHMC, IgE, 3 pt
[4] = Homo sapiens, Mast cell, 8 pt, read-out: LD Tryptase, CHMC, IgE, 8 pt
[5] = 3 pt, read-out: LD Tryptase, CHMC, IgE, 3 pt
[6] = 8 pt, read-out: LD Tryptase, CHMC, IgE, 8 pt

Structure (SMILES)	IC50 [1, 3] [µM]	IC50 [1, 4] [µM]	IC50 ([2]; Homo sapiens, Mast cell) [µM]	IC50 [1, 5] [µM]	IC50 [1, 6] [µM]	IC50 [2] [µM]
CC1(C)Oc2ccc(Nc3nc(Nc4ccc5cn[nH]c5c4)ncc3F)cc2NC1=O [Compound 1047, N4-(2,2-Dimethyl-3-oxo-4H-benz[1,4]oxazin-6-yl)-5-fluoro-N2-(indazol-6-yl)-2,4-pyrimidinediamine Methanesulfonic Acid Salt]	> 10	< 10	> 10	–	–	–
CCn1ncc2ccc(Nc3ncc(F)c(Nc4ccc5c(n4)NC(=O)C(C)(C)O5)n3)cc21 [Compound 1049, N4-(2,2-Dimethyl-3-oxo-4H-5-pyrid[1,4]oxazin-6-yl)-N2-(1-ethylindazol-6-yl)-5-fluoro-2,4-pyrimidinediamine]	–	–	–	< 10	< 10	> 10
CC(C)n1ncc2ccc(Nc3ncc(F)c(Nc4ccc5c(n4)NC(=O)C(C)(C)O5)n3)cc21 [Compound 1050, N4-(2,2-Dimethyl-3-oxo-4H-5-pyrid[1,4]oxazin-6-yl)-N2-(1-isopropylindazol-6-yl)-5-fluoro-2,4-pyrimidinediamine]	–	–	–	< 10	< 10	> 10
CC1(C)CNc2nc(Nc3nc(Cl)ncc3F)ccc2O1 [Compound 1051, 2-Chloro-N4-(3,4-dihydro-2,2-dimethyl-4H-5-pyrid[1,4]oxazin-6-yl)-5-fluoro-4-pyrimidineamine]	–	–	–	> 10	–	> 10
Cn1ncc2ccc(Nc3ncc(F)c(Nc4ccc5c(n4)NCC(C)(C)O5)n3)cc21 [Compound 1052, N4-(3,4-Dihydro-2,2-dimethyl-4H-5-pyrid[1,4]oxazin-6-yl)-5-fluoro-N2-(1-methylindazol-6-yl)-2,4-pyrimidinediamine]	–	–	–	< 10	< 10	< 10
CNC(=O)c1ccc(Nc2ncc(F)c(Nc3ccc4c(n3)NC(=O)C(C)(C)O4)n2)cc1Cl [Compound 1054, N2-[3-Chloro-4-(N-methylamino)carbonylphenyl]-N4-(2,2-dimethyl-3-oxo-4H-5-pyrid[1,4]oxazin-6-yl)-5-fluoro-2,4-pyrimidinediamine]	–	–	–	< 10	< 10	> 10
CC1(C)Oc2ccc(Nc3nc(Nc4ccc5c(c4)OCCO5)ncc3F)nc2NC1=O [Compound 1055, N4-(2,2-Dimethyl-3-oxo-4H-5-pyrid[1,4]oxazin-6-yl)-N2-(3,4-ethylenedioxyphenyl)-5-fluoro-2,4-pyrimidinediamine]	–	–	–	< 10	< 10	> 10
Cn1ncc2ccc(Nc3ncc(F)c(Nc4ccc5c(n4)NC(=O)C(C)(C)O5)n3)cc21 [Compound 1056, N4-(2,2-Dimethyl-3-oxo-4H-5-pyrid[1,4]oxazin-6-yl)-5-fluoro-N2-[1-methylindazol-6-yl]-2,4-pyrimidinediamine Hydrogen Chloride Salt]	–	–	–	< 10	< 10	> 10
Cn1ncc2ccc(Nc3ncc(F)c(Nc4ccc5c(n4)NC(=O)C(C)(C)O5)n3)cc21 [Compound 1057, N4-(2,2-Dimethyl-3-oxo-4H-5-pyrid[1,4]oxazin-6-yl)-5-fluoro-N2-[1-methylindazol-6-yl]-2,4-pyrimidinediamine p-Toluenesulfonic Acid Salt]	–	–	–	< 10	< 10	> 10
Cc1cc(C)cc(Nc2ncc(F)c(NC3CCC3)n2)c1 [Compound 1087, N4-Cyclobutyl-N2-(3,5-dimethylphenyl)-5-fluoro-2,4-pyrimidinediamine]	< 10	< 10	> 10	–	–	–
COc1cc(Nc2ncc(F)c(NC3CCC3)n2)cc(OC)c1 [Compound 1088, N4-Cyclobutyl-N2-(3,5-dimethoxyphenyl)-5-fluoro-2,4-pyrimidinediamine]	< 10	< 10	> 10	–	–	–
COc1cc(Nc2ncc(F)c(NC3CCC3)n2)cc(C(F)(F)F)c1 [Compound 1089, N4-Cyclobutyl-5-fluoro-N2-(3-methoxy-5-trifluoromethylphenyl)-2,4-pyrimidinediamine]	< 10	< 10	> 10	–	–	–
COc1ccc(Nc2ncc(F)c(Nc3cccc(NC4=NCCN4)c3)n2)cc1F [Compound 1094, 5-Fluoro-N2-(3-fluoro-4-methoxyphenyl)-N4-[3-(N-2-imidazolin-2-yl)aminophenyl]-2,4-pyrimidinediamine]	< 10	–	> 10	–	–	–
Cc1cc(C)cc(Nc2ncc(F)c(Nc3cccc(NC4=NCCN4)c3)n2)c1 [Compound 1095, N2-(3,5-Dimethylphenyl)-5-fluoro-N4-[3-(N-2-imidazolin-2-yl)aminophenyl]-2,4-pyrimidinediamine]	< 10	–	> 10	–	–	–
COc1cc(Nc2ncc(F)c(Nc3cccc(NC4=NCCN4)c3)n2)cc(OC)c1 [Compound 1096, N2-(3,5-Dimethoxyphenyl)-5-fluoro-N4-[3-(N-2-imidazolin-2-yl)aminophenyl]-2,4-pyrimidinediamine]	< 10	> 10	> 10	–	–	–
Fc1cnc(Nc2cccc(N3CCOCC3)c2)nc1Nc1cccc(NC2=NCCN2)c1 [Compound 1097, 5-Fluoro-N4-[3-(N-2-imidazolin-2-yl)aminophenyl]-N2-(3-morpholinophenyl)-2,4-pyrimidinediamine]	> 10	–	> 10	–	–	–

Second part, the compound after the results:

IC50 [1, 3] [µM]	IC50 [1, 4] [µM]	IC50 ([2]; Homo sapiens, Mast cell) [µM]	IC50 [1, 5] [µM]	IC50 [1, 6] [µM]	IC50 [2] [µM]	Structure (SMILES)
–	–	–	< 10	< 10	> 10	CNC(=O)COc1cccc(Nc2ncc(F)c(Nc3ccc4c(n3)NCC(C)(C)O4)n2)c1 [Compound 1053, N4-(3,4-Dihydro-2,2-dimethyl-4H-5-pyrid[1,4]oxazin-6-yl)-5-fluoro-N2-[3-(N-methylamino)carbonylmethyleneoxyphenyl]-2,4-pyrimidinediamine]
< 10	–	> 10	–	–	–	CC(=O)N1CCN(c2cccc(Nc3ncc(F)c(NC4CCC4)n3)c2)CC1 [Compound 1085, N2-[3-(4-Acetylpiperazino)phenyl]-N4-cyclobutyl-5-fluoro-2,4-pyrimidinediamine]
–	–	–	< 10	–	> 10	CC(C)(C)c1cc(Nc2ncc(F)c(Nc3ccc4c(n3)NC(=O)CO4)n2)n[nH]1 [Compound 1086, N2-(5-tert-Butylpyrazol-3-yl)-5-fluoro-N4-(3-oxo-2H,4H-5-pyrid[1,4]oxazin-6-yl)-2,4-pyrimidinediamine]
< 10	< 10	> 10	–	–	–	CC(C)(C)c1cc(Nc2nc(Nc3cccc(N4CCOCC4)c3)ncc2F)n[nH]1 [Compound 1090]
< 10	< 10	> 10	–	–	–	CC(=O)N1CCN(c2cccc(Nc3ncc(F)c(Nc4cc(C(C)(C)C)[nH]n4)n3)c2)CC1 [Compound 1091, N2-[3-(4-Acetylpiperazino)phenyl]-N4-(5-tert-butyl-1H-pyrazol-3-yl)-5-fluoro-2,4-pyrimidinediamine]
–	–	–	< 10	< 10	> 10	C[C@@H]1Oc2ccc(Nc3nc(Nc4cc(C(C)(C)C)[nH]n4)ncc3F)nc2NC1=O [Compound 1092, (S)-N2-(5-tert-Butyl-1H-pyrazol-3-yl)-5-fluoro-N4-(2-methyl-3-oxo-2H,4H-5-pyrid[1,4]oxazin-6-yl)-2,4-pyrimidinediamine]
> 10	–	> 10	–	–	–	CCOC(=O)N1CCN(c2cccc(Nc3ncc(F)c(Nc4cccc(NC5=NCCN5)c4)n3)c2)CC1 [Compound 1098, N2-[3-(4-Ethoxycarbonylpiperazino)phenyl]-5-fluoro-N4-[3-(N-2-imidazolin-2-yl)aminophenyl]-2,4-pyrimidinediamine]
> 10	–	> 10	–	–	–	CN1CCN(c2ccc(Nc3ncc(F)c(Nc4cccc(NC5=NCCN5)c4)n3)cc2)CC1 [Compound 1099, 5-Fluoro-N4-[3-(N-2-imidazolin-2-yl)aminophenyl]-N2-[4-(4-methylpiperazino)phenyl]-2,4-pyrimidinediamine]
> 10	–	> 10	–	–	–	COC(=O)N1CCN(c2ccc(Nc3ncc(F)c(Nc4cccc(NC5=NCCN5)c4)n3)cc2)CC1 [Compound 1100, 5-Fluoro-N4-[3-(N-2-imidazolin-2-yl)aminophenyl]-N2-[4-(4-methoxycarbonylpiperazino)phenyl]-2,4-pyrimidinediamine]
< 10	–	> 10	–	–	–	CCOC(=O)N1CCN(c2cccc(Nc3ncc(F)c(Nc4cc(C(C)(C)C)[nH]n4)n3)c2)CC1 [Compound 1101, N4-(5-tert-Butyl-1H-pyrazol-3-yl)-N2-[3-(4-ethoxycarbonylpiperazino)phenyl]-5-fluoro-2,4-pyrimidinediamine]
< 10	< 10	> 10	–	–	–	CC(=O)N1CCN(c2ccc(Nc3ncc(F)c(Nc4cc(C(C)(C)C)[nH]n4)n3)cc2)CC1 [Compound 1102]
< 10	< 10	> 10	–	–	–	COC(=O)N1CCN(c2ccc(Nc3ncc(F)c(Nc4cc(C(C)(C)C)[nH]n4)n3)cc2)CC1 [Compound 1103]
< 10	< 10	> 10	–	–	–	CN1CCN(c2ccc(Nc3ncc(F)c(Nc4cc(C(C)(C)C)[nH]n4)n3)cc2)CC1 [Compound 1104]
> 10	–	> 10	–	–	–	CC(=O)N1CCN(c2ccc(Nc3ncc(F)c(Nc4cccc(NC5=NCCN5)c4)n3)cc2)CC1 [Compound 1105, N2-[4-(4-Acetylpiperazino)phenyl]-5-fluoro-N4-[3-(N-2-imidazolin-2-yl)aminophenyl]-2,4-pyrimidinediamine]
> 10	–	> 10	–	–	–	CC(=O)N1CCN(c2cccc(Nc3ncc(F)c(Nc4cccc(NC5=NCCN5)c4)n3)c2)CC1 [Compound 1106]
